Test: Pharmacokinetics of vancomycin after i.v. or pulmonary
Settings: rabbits, 1 mg/kg i.v. bolus, plasma, LC/MS, non-compartmental, average ± S.D., n = 3; SD

In the case of `CN[C@H](CC(C)C)C(=O)N[C@H]1C(=O)N[C@@H](CC(N)=O)C(=O)N[C@H]2C(=O)N[C@H]3C(=O)N[C@H](C(=O)N[C@H](C(=O)O)c4cc(O)cc(O)c4-c4cc3ccc4O)[C@H](O)c3ccc(c(Cl)c3)Oc3cc2cc(c3O[C@@H]2O[C@H](CO)[C@@H](O)[C@H](O)[C@H]2O[C@H]2C[C@](C)(N)[C@H](O)[C@H](C)O2)Oc2ccc(cc2Cl)[C@H]1O` [vancomycin], the “AUC(0-∞)” value was 12135.34 ± 616.52 ng·h/mL, the AUClast was 12069.85 ± 638.15 ng·h/mL and the C0 was 5347 ± 4927 ng/mL. It also gave a Clearance of 1.376 ± 0.0708 mL/min/kg, a Cmax of 3330 ± 1119 ng/mL and a Half-Life of 3.38 ± 0.43 h. For the same molecule, the Tmax was 0.67 ± 0.29 h and the “Volume of Dist.” value was 0.40389 ± 0.06483 L/kg.

From publication PMC4943339 (Molecular pharmaceutics, 2015)
